Test results from publication PMC5504357, “Antifungal Potential of Copper(II), Manganese(II) and Silver(I) 1,10-Phenanthroline Chelates Against Multidrug-Resistant Fungal Species Forming the Candida haemulonii Complex: Impact on the Planktonic and Biofilm Lifestyles” (Frontiers in Microbiology, 2017).

Legend:
A549 cells = assay: Mammalian cell toxicity (MTT assay) and selectivity index; type: cell-based, Human; details: MTT, 48 h incubation
Procedure, shortened: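 A549 cells were exposed to compounds (0.0313–512 μg/mL) in DMEM for 48 h at 37 °C, 5% CO2. Viability was measured by MTT (3 h, dark), with formazan dissolved in DMSO and read at 450 nm. CC50 was derived, and SI calculated as A549 CC50 divided by C. haemulonii complex GM-MIC.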

[1] = tested on: Candida haemulonii var. vulnera; assay: Biofilm-growing cells, XTT assay, bMIC; type: cell-based; details: for GM-bMIC: geometric mean, C. haemulonii var. vulnera isolates; for bMIC: mature biofilm, 48 h, 50% inhibition of metabolic activity
Procedure, shortened: (§1)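 Biofilms were grown from 10^6 yeast cells in Sabouraud-dextrose broth for 48 h at 37°C, washed three times with PBS pH 7.2, then exposed to compounds (same concentrations as planktonic assays) for another 48 h at 37°C. Metabolic activity was read by XTT reduction; bMIC is the lowest concentration giving 50% inhibition versus compound-free wells.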

Candida haemulonii = assay: Biofilm-growing cells, XTT assay, bMIC; type: cell-based; details: for GM-bMIC: geometric mean, C. haemulonii isolates, values marked * do not include LIP Ch4 (>512); for bMIC: mature biofilm, 48 h, 50% inhibition of metabolic activity
Procedure, shortened: as §1

Candida duobushaemulonii = assay: Biofilm-growing cells, XTT assay, bMIC; type: cell-based; details: for GM-bMIC: geometric mean, C. duobushaemulonii isolates; for bMIC: mature biofilm, 48 h, 50% inhibition of metabolic activity
Procedure, shortened: as §1

CCO.O=C([O-])COCCOCCOCC(=O)[O-].[Ag+].[Ag+].c1cnc2c(c1)ccc1cccnc12.c1cnc2c(c1)ccc1cccnc12.c1cnc2c(c1)ccc1cccnc12.c1cnc2c(c1)ccc1cccnc12 [compound 16, [Ag2(3,6,9-tdda)(phen)4].EtOH]
A549 (CC50) (A549 cells): 2.21 µg/mL
GM-bMIC [1]: 2.52 mg/L
bMIC ([1]; isolate LIP Ch5): 4 mg/L
bMIC ([1]; isolate LIP Ch9): 1 mg/L
bMIC ([1]; isolate LIP Ch13): 4 mg/L
GM-bMIC (Candida haemulonii): 16 mg/L
bMIC (Candida haemulonii; isolate LIP Ch4): 32 mg/L
bMIC (Candida haemulonii; isolate LIP Ch7): 16 mg/L
bMIC (Candida haemulonii; isolate LIP Ch14): 8 mg/L
GM-bMIC (Candida duobushaemulonii): 6.35 mg/L
bMIC (Candida duobushaemulonii; isolate LIP Ch1): 4 mg/L
bMIC (Candida duobushaemulonii; isolate LIP Ch6): 8 mg/L
bMIC (Candida duobushaemulonii; isolate LIP Ch8): 8 mg/L

{[Cu(3,6,9-tdda)(phen)2].3H2O.EtOH}n [compound 7]
A549 (CC50) (A549 cells): 1.06 µg/mL
GM-bMIC [1]: 3.17 mg/L
bMIC ([1]; isolate LIP Ch5): 4 mg/L
bMIC ([1]; isolate LIP Ch9): 4 mg/L
bMIC ([1]; isolate LIP Ch13): 2 mg/L
GM-bMIC (Candida haemulonii): 8 mg/L
bMIC (Candida haemulonii; isolate LIP Ch4): 32 mg/L
bMIC (Candida haemulonii; isolate LIP Ch7): 4 mg/L
bMIC (Candida haemulonii; isolate LIP Ch14): 4 mg/L
GM-bMIC (Candida duobushaemulonii): 8 mg/L
bMIC (Candida duobushaemulonii; isolate LIP Ch1): 16 mg/L
bMIC (Candida duobushaemulonii; isolate LIP Ch6): 4 mg/L
bMIC (Candida duobushaemulonii; isolate LIP Ch8): 8 mg/L
